From ChEMBL document CHEMBL1155316, “Benzo[d]imidazole inhibitors of Coactivator Associated Arginine Methyltransferase 1 (CARM1)--Hit to Lead studies” (Bioorg Med Chem Lett, 2009)
Blank lines part the entries; values can stand above or below the compound they belong to. Active and inactive are the calls of the source. No cut-off for these calls is given here.

How the values were obtained:
[1] = target: T1, Histone-arginine methyltransferase CARM1 (Homo sapiens) (UniProt Q86X55); assay: Inhibition of human CARM1 assessed as inhibition of PABP methylation
T1 sequence (whole entry): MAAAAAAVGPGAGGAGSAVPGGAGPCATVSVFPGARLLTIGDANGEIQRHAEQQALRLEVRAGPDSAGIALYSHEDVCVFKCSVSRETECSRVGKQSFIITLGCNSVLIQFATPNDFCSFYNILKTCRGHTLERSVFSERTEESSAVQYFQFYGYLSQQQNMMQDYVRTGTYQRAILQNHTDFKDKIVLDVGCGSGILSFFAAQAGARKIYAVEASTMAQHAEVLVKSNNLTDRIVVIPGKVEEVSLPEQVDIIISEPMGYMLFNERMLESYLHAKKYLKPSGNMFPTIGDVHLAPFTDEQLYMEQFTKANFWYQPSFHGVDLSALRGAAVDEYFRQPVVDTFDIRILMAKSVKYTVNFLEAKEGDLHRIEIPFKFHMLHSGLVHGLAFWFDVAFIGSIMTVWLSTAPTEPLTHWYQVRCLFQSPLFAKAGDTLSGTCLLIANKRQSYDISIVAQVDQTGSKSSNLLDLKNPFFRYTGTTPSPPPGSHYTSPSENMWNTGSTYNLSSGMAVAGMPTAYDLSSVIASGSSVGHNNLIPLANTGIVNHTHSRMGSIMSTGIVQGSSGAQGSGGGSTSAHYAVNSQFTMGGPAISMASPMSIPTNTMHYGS

[2] = target: T1, Histone-arginine methyltransferase CARM1 (Homo sapiens); assay: Inhibition of human CARM1 assessed as inhibition of HuR methylation
[3] = target: T2, Histone-arginine methyltransferase CARM1 (Homo sapiens, UniProt Q86X55); assay: Inhibition of human CARM1 assessed as inhibition of histone3 methylation
T2 sequence (Q86X55 whole entry): T1 sequence (whole entry)

[4] = target: Protein arginine N-methyltransferase 3 (Homo sapiens, UniProt O60678); assay: Inhibition of PRMT3
[5] = target: Protein arginine N-methyltransferase 1 (Homo sapiens, UniProt Q99873); assay: Inhibition of PRMT1
Chain of Protein arginine N-methyltransferase 1 (Q99873 whole entry): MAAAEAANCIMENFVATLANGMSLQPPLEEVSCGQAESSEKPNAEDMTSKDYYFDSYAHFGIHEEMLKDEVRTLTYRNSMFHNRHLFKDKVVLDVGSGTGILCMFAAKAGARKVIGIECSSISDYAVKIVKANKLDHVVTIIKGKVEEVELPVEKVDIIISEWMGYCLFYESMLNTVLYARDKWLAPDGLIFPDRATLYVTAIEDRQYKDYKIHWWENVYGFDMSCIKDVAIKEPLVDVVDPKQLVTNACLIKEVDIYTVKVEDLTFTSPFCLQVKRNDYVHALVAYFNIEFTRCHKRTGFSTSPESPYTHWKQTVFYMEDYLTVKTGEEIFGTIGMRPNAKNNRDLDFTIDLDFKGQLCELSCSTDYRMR

Chain of Protein arginine N-methyltransferase 3 (O60678 whole entry): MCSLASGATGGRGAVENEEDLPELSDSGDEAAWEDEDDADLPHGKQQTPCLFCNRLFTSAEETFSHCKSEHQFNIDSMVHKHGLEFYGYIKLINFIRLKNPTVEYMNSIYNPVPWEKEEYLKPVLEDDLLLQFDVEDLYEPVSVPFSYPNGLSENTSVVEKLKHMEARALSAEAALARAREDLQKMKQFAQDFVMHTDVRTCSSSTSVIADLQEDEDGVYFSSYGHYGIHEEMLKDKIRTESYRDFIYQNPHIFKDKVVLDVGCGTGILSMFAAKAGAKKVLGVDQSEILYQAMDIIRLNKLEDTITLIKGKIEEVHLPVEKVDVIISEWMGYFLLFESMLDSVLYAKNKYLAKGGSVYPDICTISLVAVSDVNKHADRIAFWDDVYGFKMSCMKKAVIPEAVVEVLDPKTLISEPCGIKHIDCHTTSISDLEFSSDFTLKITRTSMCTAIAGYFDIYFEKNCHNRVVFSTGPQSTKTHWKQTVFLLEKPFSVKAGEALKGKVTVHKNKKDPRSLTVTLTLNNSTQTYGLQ

- Activity [1]: Active
- Activity [2]: Active
SMILES: CNCCN1CCC(c2cc(C)c3[nH]c(-c4c(OC)cccc4OC)nc3c2)CC1

- IC50 [3]: 0.04 µM
SMILES: C[C@H](N)C(=O)NCc1cccc(-n2nc(C(F)(F)F)cc2-c2nnc(-c3cccc4ncsc34)o2)c1

- IC50 [3]: > 30 µM
SMILES: CN[C@H](C)CN1CCC(c2cc(C)c3nc(-c4cccnc4OC)[nH]c3c2)CC1

- IC50 [3]: > 30 µM
SMILES: CN[C@@H](C)CN1CCC(c2cc(C)c3nc(-c4cccnc4OC)[nH]c3c2)CC1

- IC50 [4]: > 25 µM
- IC50 [5]: > 25 µM
SMILES: CNCCN1CCC(c2cc(C)c3nc(-c4c(OC)cccc4OC)[nH]c3c2)CC1
